# Source: patent US20240279202A1 (NURIX THERAPEUTICS, INC., priority 2021, published 2024)
# Assays:
# ITK = target: T1, ITK (Homo sapiens, UniProt Q08881); test: ITK degradation HiBiT assay; type: cell-based; parameters: expressed in transfected cells; host or cells: Molt4 (ATCC CRL-1552), monoclonal clone 1C10, engineered to carry the HiBiT tag; details: 4 hrs; for Dmax: MOLT-4, C-terminal HiBiT-tagged Molt4 cells
# T1 sequence (Q08881 1-620): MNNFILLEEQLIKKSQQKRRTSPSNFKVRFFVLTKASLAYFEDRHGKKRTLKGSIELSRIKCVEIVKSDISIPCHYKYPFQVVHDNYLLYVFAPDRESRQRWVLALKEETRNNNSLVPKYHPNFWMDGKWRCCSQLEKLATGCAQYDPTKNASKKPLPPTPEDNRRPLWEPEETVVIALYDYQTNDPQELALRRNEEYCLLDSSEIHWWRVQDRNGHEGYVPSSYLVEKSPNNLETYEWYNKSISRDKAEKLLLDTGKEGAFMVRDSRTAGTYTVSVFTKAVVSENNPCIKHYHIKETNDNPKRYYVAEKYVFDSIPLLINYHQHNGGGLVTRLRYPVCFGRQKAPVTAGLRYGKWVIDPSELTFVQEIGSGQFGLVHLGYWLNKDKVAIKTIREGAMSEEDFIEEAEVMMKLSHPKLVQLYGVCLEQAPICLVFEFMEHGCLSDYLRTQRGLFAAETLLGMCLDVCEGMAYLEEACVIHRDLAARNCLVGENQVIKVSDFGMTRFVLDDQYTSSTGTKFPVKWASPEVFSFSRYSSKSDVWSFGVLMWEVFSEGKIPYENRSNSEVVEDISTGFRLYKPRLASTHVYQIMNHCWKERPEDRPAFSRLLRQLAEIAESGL
# Outline: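 C-terminal HiBiT-tagged Molt4 cells (clone 1C10) treated 4 h at 32° C with an 11-point, 5-fold compound dilution series (0.5% DMSO). HiBiT lytic detection with LgBiT then luminescence read; % ITK remaining versus concentration fit by four-parameter variable-slope model to give DC50 and Dmax.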
# [1] = Mouse PK analysis (blood/plasma concentration after oral administration); type: in vivo; details: mouse, plasma, oral, 90 mg/kg, mice
# Outline: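 Mice were dosed by oral gavage at 90 mg/kg with blood sampled at 1, 2 and 6 h; a second study used oral dosing with plasma taken at 6 or 24 h. Plasma levels were measured by LC/MS/MS (acetonitrile precipitation, internal-standard curve, positive ESI MRM), and Cmax, Tmax and AUClast were derived by noncompartmental analysis.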
# [2] = C-terminal HiBiT-tagged Molt4 cells
SMILES,DC50 (ITK; [2]) [nM],Dmax (ITK) [%],further results
"CN(C(=O)CC1CCN(CC2CCN(c3ccc(C4CCC(=O)NC4=O)cn3)CC2)CC1)c1ccc2cc(-c3n[nH]c4c3C[C@@H]3C(F)(F)[C@]3(C)C4)[nH]c2c1 (stereo partly drawn) [Compound 73, N-(2-((4aS,5aR)-5,5-difluoro-5a-methyl-1,4,4a,5,5a,6-hexahydrocyclopropa[f]indazol-3-yl)-1H-indol-6-yl)-2-(1-((1-(5-(2,6-dioxopiperidin-3-yl)pyridin-2-yl)piperidin-4-yl)methyl)piperidin-4-yl)-N-methylacetamide]",1.6,,
"C[C@@H](C(=O)N(C)c1ccc2cc(-c3n[nH]c4c3CCC(C)(C)C4)[nH]c2c1)N1CCN(C[C@H]2CCN(c3ccc4c(c3)C(=O)N(C3CCC(=O)NC3=O)C4=O)C2)CC1 (stereo partly drawn) [Compound 33, (2S)—N-(2-(6,6-dimethyl-4,5,6,7-tetrahydro-1H-indazol-3-yl)-1H-indol-6-yl)-2-(4-(((3R)-1-(2-(2,6-dioxopiperidin-3-yl)-1,3-dioxoisoindolin-5-yl)pyrrolidin-3-yl)methyl)piperazin-1-yl)-N-methylpropanamide]",3.4,85,
"CC1(C)CCc2c(-c3cc4ccc(C(=O)N5CCN(CC6CCN(c7ccc(C8CCC(=O)NC8=O)cn7)CC6)CC5)cc4[nH]3)n[nH]c2C1 (centres unmarked) [Compound 47, 3-(6-(4-((4-(2-(6,6-dimethyl-4,5,6,7-tetrahydro-1H-indazol-3-yl)-1H-indole-6-carbonyl)piperazin-1-yl)methyl)piperidin-1-yl)pyridin-3-yl)piperidine-2,6-dione]",4.6,,
"CN(C(=O)CCC1CCN(c2ccc(C3CCC(=O)NC3=O)cn2)CC1)c1ccc2cc(-c3n[nH]c4c3C[C@@H]3C(F)(F)[C@]3(C)C4)[nH]c2c1 (stereo partly drawn) [Compound 21, N-(2-((4aS,5aR)-5,5-difluoro-5a-methyl-1,4,4a,5,5a,6-hexahydrocyclopropa[f]indazol-3-yl)-1H-indol-6-yl)-3-(1-(5-(2,6-dioxopiperidin-3-yl)pyridin-2-yl)piperidin-4-yl)-N-methylpropanamide]",0.01,,
"C[C@@]12Cc3[nH]nc(C(=O)Nc4cnn(CC5CN(C(=O)C6CCN(c7ccc(C8CCC(=O)NC8=O)cn7)CC6)C5)c4)c3C[C@@H]1C2(F)F (stereo partly drawn) [Compound 50, (4aS,5aR)-N-(1-((1-(1-(5-(2,6-dioxopiperidin-3-yl)pyridin-2-yl)piperidine-4-carbonyl)azetidin-3-yl)methyl)-1H-pyrazol-4-yl)-5,5-difluoro-5a-methyl-1,4,4a,5,5a,6-hexahydrocyclopropa[f]indazole-3-carboxamide]",0.21,,
"C[C@@H](C(=O)N(C)c1ccc2cc(-c3n[nH]c4c3CCC(C)(C)C4)[nH]c2c1)N1CCN(CC2CCN(c3ccc(N4CCC(=O)NC4=O)cn3)CC2)CC1 [Compound 11, (S)—N-(2-(6,6-dimethyl-4,5,6,7-tetrahydro-1H-indazol-3-yl)-1H-indol-6-yl)-2-(4-((1-(5-(2,4-dioxotetrahydropyrimidin-1(2H)-yl)pyridin-2-yl)piperidin-4-yl)methyl)piperazin-1-yl)-N-methylpropanamide]",2,,
"CN(C(=O)CC[C@H]1CCN(c2ccc3c(c2)C(=O)N(C2CCC(=O)NC2=O)C3=O)C1)c1ccc2cc(-c3n[nH]c4c3C[C@@H]3C(F)(F)[C@]3(C)C4)[nH]c2c1 (stereo in doubt) [Compound 67, N-(2-((4aS,5aR)-5,5-difluoro-5a-methyl-1,4,4a,5,5a,6-hexahydrocyclopropafindazol-3-yl)-1H-indol-6-yl)-3-((3R)-1-(2-(2,6-dioxopiperidin-3-yl)-1,3-dioxoisoindolin-5-yl)pyrrolidin-3-yl)-N-methylpropanamide]",2.3,75,
"CN(C(=O)C1CN(C2CCN(c3ccc4c(c3)C(=O)N(C3CCC(=O)NC3=O)C4=O)CC2)C1)c1ccc2cc(-c3n[nH]c4c3CCC(C)(C)C4)[nH]c2c1 (centres unmarked) [Compound 35, N-(2-(6,6-dimethyl-4,5,6,7-tetrahydro-1H-indazol-3-yl)-1H-indol-6-yl)-1-(1-(2-(2,6-dioxopiperidin-3-yl)-1,3-dioxoisoindolin-5-yl)piperidin-4-yl)-N-methylazetidine-3-carboxamide]",,,"concentration at 2 h ([1]; 2 h, read-out: Cal. Conc. Total (μM) 2 h): 0.155 µM; concentration at 6 h ([1]; 6 h, read-out: Cal. Conc. Total (μM) 6 h): 0.053 µM"
CN(C(=O)CC[C@H]1CCN(c2ccc3c(c2)C(=O)N(C2CCC(=O)NC2=O)C3=O)C1)c1ccc2cc(-c3n[nH]c4c3C[C@@H]3C(F)(F)[C@]3(C)C4)[nH]c2c1 (stereo in doubt) [Compound 68],0.5,,HiBiT DMax (%) (ITK; [2]): 78%
"Cn1c(=O)n(C2CCC(=O)NC2=O)c2ccc(N3CCC(CN4CCC5(CC4)CCN(c4ccc6cc(-c7n[nH]c8c7CCC(C)(C)C8)[nH]c6c4)C5=O)CC3)cc21 (centres unmarked) [Compound 14, 3-(5-(4-((2-(2-(6,6-dimethyl-4,5,6,7-tetrahydro-1H-indazol-3-yl)-1H-indol-6-yl)-1-oxo-2,8-diazaspiro[4.5]decan-8-yl)methyl)piperidin-1-yl)-3-methyl-2-oxo-2,3-dihydro-1H-benzo[d]imidazol-1-yl)piperidine-2,6-dione]",0.16,89,
"CN(C(=O)CC1CCN(CC2CCN(c3ccc(C(=O)NC4CCC(=O)NC4=O)nc3)CC2)CC1)c1ccc2cc(-c3n[nH]c4c3C[C@@H]3C(F)(F)[C@]3(C)C4)[nH]c2c1 (stereo partly drawn) [Compound 75, 5-(4-((4-(2-((2-((4aS,5aR)-5,5-difluoro-5a-methyl-1,4,4a,5,5a,6-hexahydrocyclopropa[f]indazol-3-yl)-1H-indol-6-yl)(methyl)amino)-2-oxoethyl)piperidin-1-yl)methyl)piperidin-1-yl)-N-(2,6-dioxopiperidin-3-yl)picolinamide]",0.5,83,
"C[C@@H](C(=O)N(C)c1ccc2cc(-c3n[nH]c4c3C[C@@H]3C(F)(F)[C@]3(C)C4)[nH]c2c1)N1CCN(CC2CCN(c3ccc(N4CCC(=O)NC4=O)cn3)CC2)CC1 [Compound 18, (S)—N-(2-((4aS,5aR)-5,5-difluoro-5a-methyl-1,4,4a,5,5a,6-hexahydrocyclopropa[f]indazol-3-yl)-1H-indol-6-yl)-2-(4-((1-(5-(2,4-dioxotetrahydropyrimidin-1(2H)-yl)pyridin-2-yl)piperidin-4-yl)methyl)piperazin-1-yl)-N-methylpropanamide]",0.004,,
"C[C@@]12Cc3[nH]nc(C(=O)Nc4cnn(CC5CN(C(=O)C6CN(C7CCN(c8ccc9c(c8)C(=O)N(C8CCC(=O)NC8=O)C9=O)CC7)C6)C5)c4)c3C[C@@H]1C2(F)F (stereo partly drawn) [Compound 42, (4aS,5aR)-N-(1-((1-(1-(1-(2-(2,6-dioxopiperidin-3-yl)-1,3-dioxoisoindolin-5-yl)piperidin-4-yl)azetidine-3-carbonyl)azetidin-3-yl)methyl)-1H-pyrazol-4-yl)-5,5-difluoro-5a-methyl-1,4,4a,5,5a,6-hexahydrocyclopropa[f]indazole-3-carboxamide]",2.9,93,
"C[C@@]12Cc3[nH]nc(-c4cc5ccc(N6CCC7(CCN(CC8CCN(c9ccc(C%10CCC(=O)NC%10=O)cn9)CC8)CC7)C6=O)cc5[nH]4)c3C[C@@H]1C2(F)F (stereo partly drawn) [Compound 19, 3-(6-(4-((2-(2-((4aS,5aR)-5,5-difluoro-5a-methyl-1,4,4a,5,5a,6-hexahydrocyclopropa[f]indazol-3-yl)-1H-indol-6-yl)-1-oxo-2,8-diazaspiro[4.5]decan-8-yl)methyl)piperidin-1-yl)pyridin-3-yl)piperidine-2,6-dione]",0.27,,
"C[C@@H](C(=O)N(C)c1ccc2cc(-c3n[nH]c4c3CCC(C)(C)C4)[nH]c2c1)N1CCN(CC2CCN(c3ccc(C4CCC(=O)NC4=O)cn3)CC2)CC1 (stereo partly drawn) [Compound 10, (2S)—N-(2-(6,6-dimethyl-4,5,6,7-tetrahydro-1H-indazol-3-yl)-1H-indol-6-yl)-2(4-((1-(5-(2,6-dioxopiperidin-3-yl)pyridin-2-yl)piperidin-4-yl)methyl)piperazin-1-yl)-N-methylpropanamide]",0.48,,
"C[C@@]12Cc3[nH]nc(C(=O)Nc4cnn(CC5CN(C(=O)C6CN(c7ccc(C8CCC(=O)NC8=O)cn7)C6)C5)c4)c3C[C@@H]1C2(F)F (stereo partly drawn) [Compound 49, (4aS,5aR)-N-(1-((1-(1-(5-(2,6-dioxopiperidin-3-yl)pyridin-2-yl)azetidine-3-carbonyl)azetidin-3-yl)methyl)-1H-pyrazol-4-yl)-5,5-difluoro-5a-methyl-1,4,4a,5,5a,6-hexahydrocyclopropa[f]indazole-3-carboxamide]",3.9,,
